# Data from PMC3010197 (Biochemistry, 2010).
# “And” between values parts separate entries of the source, which are not always exact repeats. Identical values can stand only once. Like-named read-outs stand apart in the source and are kept apart here.
# B1: CePNC1 (Caenorhabditis elegans nicotinamidase 1) (Caenorhabditis elegans) (protein)
# chain: DNSATTNNNTILGNQSLEAIPEQLSELTGITVEESERIMESWLGNRQLDLRTSVLFDQEVLSRLRSLRVALLVVDFQNDFVDGSLKIGDGDAGQEPSSAITPLNELLQLSSWDLVVYTKDWHPHNHISFLSQAHNSDRVMDEKDENKTLGFFDSVQFLKPIKTEQVLYPDHCIQKSWGSDIHPEIYIADNAEYIMKGVDPYLDSYSAFNDNNGRSKTELEDLLRRENIDAVVIAGLAYDICVRFTCLDAVKQNFLAAVIPECSAGLTKKGIEESEMAFKKQGVAMISKDEARGITEGGFLPREWVQRIVKK
# B2: CePNC2 (Caenorhabditis elegans nicotinamidase 2) (Caenorhabditis elegans) (protein)
# chain: MGVVQNEQDIREKMKNELISLVNEIDLIPELDRLLDDFIENKTWNEDTQELFTRVVLKPFTTLRTSLLVVDFQNDFVTGSLSIKEGDAEQDPLEALPHVNNLLENLNWNMIVYTQDWHPSNHISFFEHARNPDRELAPEDKSRKLRPFDIVRFVKPVSTIQVLYPSHCIQGGWGSQLHLGLQRIDGAHYIKKGADVYVDAYSAFSDNCGIKQSELEMLLRKNDINAVIGCGLAYDICVMHTLKDASKHGFLTCIVKSGSKGLSSLKMDEANKMFQKRGVAIIDDEMAQLISRREAFPIEWIRLLVHQAQSELHGKK
# Key:
# [1] = test system: Bovine glutamate dehydrogenase (GDH); conditions: GDH Km for NADPH; cited from earlier work
# [2] = molecular target: T1, Pnc1 (Saccharomyces cerevisiae nicotinamidase) (Saccharomyces cerevisiae, UniProt P53184); test: Substrate specificity: relative rates for nicotinamide analogues; type: biochemical
# T1 sequence (P53184 1-216): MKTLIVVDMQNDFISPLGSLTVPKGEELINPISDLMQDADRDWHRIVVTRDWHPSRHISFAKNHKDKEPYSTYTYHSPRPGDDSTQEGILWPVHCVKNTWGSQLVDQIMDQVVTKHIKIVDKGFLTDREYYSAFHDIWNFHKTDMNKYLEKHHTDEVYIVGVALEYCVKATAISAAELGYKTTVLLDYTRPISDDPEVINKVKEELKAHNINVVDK
# [3] = molecular target: T2, SpNic (Streptococcus pneumoniae nicotinamidase) (Streptococcus pneumoniae, UniProt A0A0H2UR34); type: biochemical
# [4] = molecular target: T3, BbNic (Borrelia burgdorferi nicotinamidase) (Borreliella burgdorferi, UniProt O50718); type: biochemical
# [5] = molecular target: T4, PfNic (Plasmodium falciparum nicotinamidase) (Plasmodium falciparum, UniProt O97284); type: biochemical
# [6] = molecular target: T1, Pnc1 (Saccharomyces cerevisiae nicotinamidase); test: Inhibition analysis, GDH coupled nicotinamidase assay; type: biochemical; conditions: Km of nicotinamide over Ki of nicotinaldehyde
# [7] = molecular target: T4, PfNic (Plasmodium falciparum nicotinamidase); test: biochemical
# [8] = molecular target: S. cerevisiae nicotinamidase; conditions: reported as non-competitive; cited from earlier work
# nicotinamidases = test: Class-wide statements for all nicotinamidases studied; type: biochemical
# [9] = molecular target: T3, BbNic (Borrelia burgdorferi nicotinamidase); test: Steady state kinetics of nicotinamide hydrolysis, HPLC assay; type: biochemical; conditions: substrate nicotinamide, 100 mM phosphate pH 7.3
# SPNic C136A mutant = test: Nicotinamidase catalytic rate of SpNic and mutants; type: biochemical, Streptococcus pneumoniae; conditions: 200 µM NAM, 37 °C, HPLC assay
# [10] = molecular target: T2, SpNic (Streptococcus pneumoniae nicotinamidase); test: Steady state progress curve analysis, GDH coupled assay; type: biochemical; conditions: substrate nicotinamide, 100 µM nicotinamide, pH 7.3
# SPNic C136S mutant = test: Nicotinamidase catalytic rate of SpNic and mutants; type: biochemical, Streptococcus pneumoniae; conditions: 200 µM NAM, 37 °C, HPLC assay
# [11] = molecular target: T1, Pnc1 (Saccharomyces cerevisiae nicotinamidase); test: Steady state progress curve analysis, GDH coupled assay; conditions: substrate nicotinamide, 100 µM nicotinamide, pH 7.3
# [12] = no reference given; cited from earlier work
# Steady state analysis = substrate: NC(=O)c1cccnc1; test: Steady state analysis; type: biochemical, Caenorhabditis elegans; conditions: other: substrate nicotinamide, initial rates, pH 7.3
# [13] = footnote a: GDH coupled fluorescence assay, 500 µM analogue, pH 7.3
# [14] = footnote b: HPLC assay, 500 µM analogue, pH 7.3, 37 °C
molecule,measurement,setting,value
"NC(=O)C1=CN([C@@H]2O[C@H](COP(=O)(O)OP(=O)(O)OC[C@H]3O[C@@H](n4cnc5c(N)ncnc54)[C@H](OP(=O)(O)O)[C@@H]3O)[C@@H](O)[C@H]2O)C=CC1 [NADPH, nicotinamide adenine dinucleotide phosphate reduced form]",Km,[1],28 µM
"Cc1cncc(C(N)=O)c1 [compound 1, 5-methylnicotinamide]",Relative rate (nicotinamide = 1.00),[2]; [13],0.80
same,Relative rate (nicotinamide = 1.00),[3]; [13],1.63
same,Relative rate (nicotinamide = 1.00),[4]; [13],0.51
same,Relative rate (nicotinamide = 1.00),[5]; [13],3.30
"COc1cncc(C(N)=O)c1 [compound 2, 5-Methoxynicotinamide]",Relative rate (nicotinamide = 1.00),[2]; [14],2.06
same,Relative rate (nicotinamide = 1.00),[3]; [14],1.37
same,Relative rate (nicotinamide = 1.00),[4]; [14],2.21
same,Relative rate (nicotinamide = 1.00),[5]; [14],6.46
"NC(=O)c1cccnc1Cl [compound 3, 2-chloronicotinamide]",Relative rate (nicotinamide = 1.00),[2]; [14],0
same,Relative rate (nicotinamide = 1.00),[3]; [14],0
same,Relative rate (nicotinamide = 1.00),[4]; [14],0
same,Relative rate (nicotinamide = 1.00),[5]; [14],0
"NC(=O)c1ccc(Cl)nc1 [compound 4, 6-chloronicotinamide]",Relative rate (nicotinamide = 1.00),[2]; [14],0.17
same,Relative rate (nicotinamide = 1.00),[3]; [14],0.018
same,Relative rate (nicotinamide = 1.00),[4]; [14],0
same,Relative rate (nicotinamide = 1.00),[5]; [14],0
"Cc1ccc(C(N)=O)cn1 [compound 5, 6-methylnicotinamide]",Relative rate (nicotinamide = 1.00),[2]; [13],0
same,Relative rate (nicotinamide = 1.00),[3]; [13],0.11
same,Relative rate (nicotinamide = 1.00),[4]; [13],0.45
same,Relative rate (nicotinamide = 1.00),[5]; [13],0.40
"NC(=O)c1ccc(N)nc1 [compound 6, 6-aminonicotinamide]",Relative rate (nicotinamide = 1.00),[2]; [13],0.20
same,Relative rate (nicotinamide = 1.00),[3]; [13],0.36
same,Relative rate (nicotinamide = 1.00),[5]; [13],0.45
"COc1ccncc1C(N)=O [compound 7, 4-Methoxynicotinamide]",Relative rate (nicotinamide = 1.00),[2]; [14],0.050
same,Relative rate (nicotinamide = 1.00),[3]; [14],0.065
same,Relative rate (nicotinamide = 1.00),[4]; [14],0.20
same,Relative rate (nicotinamide = 1.00),[5]; [14],0.12
"NC(=O)c1ccncc1 [compound 8, isonicotinamide]",Relative rate (nicotinamide = 1.00),[2]; [14],0
same,Relative rate (nicotinamide = 1.00),[3]; [14],0
same,Relative rate (nicotinamide = 1.00),[5]; [14],0
"NC(=O)c1ccnc(N)c1 [compound 9, 2-Aminoisonicotinamide]",Relative rate (nicotinamide = 1.00),[2]; [14],0
same,Relative rate (nicotinamide = 1.00),[3]; [14],0
same,Relative rate (nicotinamide = 1.00),[5]; [14],0
"NC(=S)c1cccnc1 [compound 10, Thionicotinamide]",Relative rate (nicotinamide = 1.00),[2]; no method footnote,0.44
same,Relative rate (nicotinamide = 1.00),[3]; no method footnote,0
same,Relative rate (nicotinamide = 1.00),[4]; no method footnote,0
same,Relative rate (nicotinamide = 1.00),[5]; no method footnote,0
"COC(=O)c1cccnc1 [compound 11, methylnicotinate]",Relative rate (nicotinamide = 1.00),[2]; [14],0.15
same,Relative rate (nicotinamide = 1.00),[3]; [14],0.035
same,Relative rate (nicotinamide = 1.00),[5]; [14],65.0
same,Relative rate (nicotinamide = 1.00),"[5]; footnote b: HPLC assay, 500 µM analogue, pH 7.3, 37 °C, listed as methylnicotinate",65
same,steady state rate constant of turnover,[5]; methylnicotinate as substrate,18 s⁻¹
"CCOC(=O)c1cccnc1 [compound 12, ethylnicotinate]",Relative rate (nicotinamide = 1.00),[2]; [14],0.044
same,Relative rate (nicotinamide = 1.00),[3]; [14],0.0086
same,Relative rate (nicotinamide = 1.00),[5]; [14],0.023
"O=C(Oc1ccccc1)c1cccnc1 [compound 13, phenylnicotinate]",Relative rate (nicotinamide = 1.00),[2]; [14],0.031
same,Relative rate (nicotinamide = 1.00),[3]; [14],0.031
same,Relative rate (nicotinamide = 1.00),[5]; [14],0.13
"C[n+]1cccc(C(N)=O)c1 [compound 14, 1-Methylnicotinamide]",Relative rate (nicotinamide = 1.00),[2]; [14],0
same,Relative rate (nicotinamide = 1.00),[3]; [14],0
same,Relative rate (nicotinamide = 1.00),[5]; [14],0
"C[n+]1ccc(C(N)=O)cc1 [compound 15, 1-methyl isonicotinamide]",Relative rate (nicotinamide = 1.00),[2]; [14],0
same,Relative rate (nicotinamide = 1.00),[3]; [14],0
same,Relative rate (nicotinamide = 1.00),[5]; [14],0
"O=Cc1cccnc1 [compound 16, nicotinaldehyde]",Km/Ki,[6],7.6
same,Ki,[7],0.034 ± 0.007 µM
same,Ki,[8],68 µM
same,factor by which Ki is smaller than the Km for nicotinamide,nicotinamidases; across all enzymes studied except yeast pnc1,91–3450
same,mode of inhibition (double reciprocal plots),"nicotinamidases; versus nicotinamide, in all cases",competitive inhibition
"Cc1cncc(C=O)c1 [compound 19, 5-methylnicotinaldehyde]",Ki,[7],0.023 ± 0.005 µM
"O=Cc1ccc(F)nc1 [compound 21, 6-Fluoro-3-pyridinecarboxaldehyde]",Ki,[7],4.9 µM
"N#Cc1cccnc1 [compound 23, 3-cyanopyridine]",Ki,[7],1000 µM
"CC(=O)c1cccnc1 [compound 24, acetylpyridine]",Ki,[7],10 µM
NC(=O)c1cccnc1 [nicotinamide],Relative rate (nicotinamide = 1.00),[2]; no method footnote,1.00
same,Relative rate (nicotinamide = 1.00),[3]; no method footnote,1.00
same,Km,[9]; Michaelis-Menten fit,36.7 ± 7.5 µM
same,kcat,[9]; confirmed by HPLC assay,0.0030 ± 0.0002 ^b s^−1
same,Relative rate (nicotinamide = 1.00),[4]; no method footnote,1.00
same,Catalytic rate (kobs),SPNic C136A mutant,< 10^−6 s^−1
same,kcat,[10],2.1 s⁻¹
same,Catalytic rate (kobs),SPNic C136S mutant,< 10^−6 s^−1
same,Relative rate (nicotinamide = 1.00),[5]; no method footnote,1.00
same,kcat,[11],3.8 s^−1 and 3.8 ± 0.1 ^b s^−1
"O=C(O)c1cccnc1 [nicotinic acid, reference compound]",pKa,[12],~3
same,effect on nicotinamidase rates (product inhibition),"nicotinamidases; nicotinic acid up to 500 µM, all enzymes, data not shown",do not vary
B1,Km,Steady state analysis,113 ± 11 µM
same,kcat,Steady state analysis,3.1 ± 0.12 s⁻¹
B2,Km,Steady state analysis,76 ± 10 µM
same,kcat,Steady state analysis,0.28 ± 0.013 s⁻¹
